MIC data for 4 molecules are collected here from patent US4309554A, “3-(2-Thiophenesulfonyl)-2-halopropanenitriles” (The Dow Chemical Company, priority 1980, dated 1982).

SMILES strings stand for the structures. ≈ marks a conversion by molar mass, not a printed value.

As a reminder, the MIC is the least concentration at which growth counts as inhibited. Higher therefore signals a need for much substance.

Holding throughout (type): cell-based
Test [1] deals with S. aureus. The experiment in a line: in vitro agar Petri dish dilution test, MIC against S. aureus. The conditions noted are these: Staphylococcus aureus; S. aureus (Sa). An excerpt: (§1) The compounds have antimicrobial utility. In conventional in vitro agar Petri dish dilution tests for determining antimicrobial activity, the compounds of the Examples had minimum inhibitory concentrations (MIC) against the indicated organisms in parts per million (ppm) as follows: […]

For test [2], the system named is E. coli. Put plainly: in vitro agar Petri dish dilution test, MIC against E. coli. The conditions noted are these: Escherichia coli; E. coli (Ec).
From the text: as §1

In test [3] the test system is C albicans. The experiment in a line: in vitro agar Petri dish dilution test, MIC against C albicans. The note with it: C albicans (Ca).
From the text: as §1

For test [4], the system named is T. mentagrophytes. The experiment in a line: in vitro agar Petri dish dilution test, MIC against T. mentagrophytes. The note with it: Trichophyton mentagrophytes; T. mentagrophytes (Tm).
From the text: as §1

Test [5] deals with A. niger. Put plainly: in vitro agar Petri dish dilution test, MIC against A. niger. The conditions noted are these: Aspergillus niger; A. niger (An).
From the text: as §1

Test [6] concerns B. subtilis. The experiment in a line: in vitro agar Petri dish dilution test, MIC against B. subtilis. The note with it: Bacillus subtilis; B. subtilis (head Be, footnote Bs).
From the text: as §1

In test [7] the test system is A. aerogenes. Put plainly: in vitro agar Petri dish dilution test, MIC against A. aerogenes. The conditions noted are these: Klebsiella aerogenes; A. aerogenes (Aa).
From the text: as §1

Test [8] relates to C. pelliculosa. The experiment in a line: in vitro agar Petri dish dilution test, MIC against C. pelliculosa. The conditions noted are these: Hansenula anomala; C. pelliculosa (Cp).
From the text: as §1

Test [9] relates to P. pullulans. The experiment in a line: in vitro agar Petri dish dilution test, MIC against P. pullulans. The note with it: P. pullulans (Pp).
From the text: as §1

Test [10] concerns Pseudomonas Sp. Strain 10. Put plainly: in vitro agar Petri dish dilution test, MIC against Pseudomonas Sp. Strain 10. The conditions noted are these: Pseudomonas Sp. Strain 10 (Ps 10).
From the text: as §1

In test [11] the test system is Ceratocystis IPS. Put plainly: in vitro agar Petri dish dilution test, MIC against Ceratocystis IPS. The note with it: Ceratocystis IPS (CI).
From the text: as §1

Test [12] concerns Trichoderm Sp. Madison P42. Put plainly: in vitro agar Petri dish dilution test, MIC against Trichoderm Sp. Madison P42. The note with it: Trichoderm Sp. Madison P42 (Tr 42).
From the text: as §1

The test system of test [13] is S. typhosa. Put plainly: in vitro agar Petri dish dilution test, MIC against S. typhosa. The conditions noted are these: S. typhosa (St).
From the text: as §1

Consider `CCCCc1ccc(S(=O)(=O)CC(Cl)C#N)s1` (stereo not drawn) [2(c)], for which the MIC in test [1] was determined as 5 µg/mL (≈ 17.1 µM); in test [2], 500 µg/mL (≈ 1710 µM); in test [3], 50 µg/mL (≈ 171 µM); in test [4], 50 µg/mL (≈ 171 µM); in test [5], 500 µg/mL (≈ 1710 µM); in test [6] it was 5 µg/mL (≈ 17.1 µM). In addition, the MIC is 500 µg/mL (≈ 1710 µM) in test [7]; 50 µg/mL (≈ 171 µM) in test [8]; 50 µg/mL (≈ 171 µM) in test [9]; 500 µg/mL (≈ 1710 µM) in test [10]; 50 µg/mL (≈ 171 µM) in test [11]; 500 µg/mL (≈ 1710 µM) in [12].

For `N#CC(Cl)CS(=O)(=O)c1cccs1` (stereo not drawn) [Example 1, 3-(2-Thiophenesulfonyl)-2-chloropropane nitrile], the MIC worked out at 100 µg/mL (≈ 424 µM) in [1]; 100 µg/mL (≈ 424 µM) in test [2]; 10 µg/mL (≈ 42.4 µM) in [3]; 10 µg/mL (≈ 42.4 µM) in [4]; 100 µg/mL (≈ 424 µM) in [5]; 100 µg/mL (≈ 424 µM) in test [6]. In addition, the MIC is 100 µg/mL (≈ 424 µM) in test [7]; 10 µg/mL (≈ 42.4 µM) in test [8]; 10 µg/mL (≈ 42.4 µM) in [9]; 100 µg/mL (≈ 424 µM) in test [10]; 100 µg/mL (≈ 424 µM) in test [11]; 100 µg/mL (≈ 424 µM) in test [12].

As to `CCc1ccc(S(=O)(=O)CC(Cl)C#N)s1` (stereo not drawn) [2(b)], the MIC in [1] was found to be 5 µg/mL (≈ 19 µM); in test [2], 50 µg/mL (≈ 190 µM); in test [3] it was 500 µg/mL (≈ 1900 µM); in test [4], 50 µg/mL (≈ 190 µM); in test [5], 500 µg/mL (≈ 1900 µM); in test [6], 5 µg/mL (≈ 19 µM). Moreover, the MIC in test [7] amounted to 100 µg/mL (≈ 379 µM); in test [8] it was 100 µg/mL (≈ 379 µM); in [9], 500 µg/mL (≈ 1900 µM); in test [13] it was 5 µg/mL (≈ 19 µM); in [10] it was 500 µg/mL (≈ 1900 µM); in [11], 100 µg/mL (≈ 379 µM). For the same molecule, in [12], the MIC was determined as 500 µg/mL (≈ 1900 µM).

Regarding `Cc1ccc(S(=O)(=O)CC(Cl)C#N)s1` (stereo not drawn) [2(a)], the MIC in test [1] was found to be 50 µg/mL (≈ 200 µM); in [3], 50 µg/mL (≈ 200 µM); in [4] it was 50 µg/mL (≈ 200 µM); in test [5] it was 50 µg/mL (≈ 200 µM); in test [6], 10 µg/mL (≈ 40 µM); in test [7], 50 µg/mL (≈ 200 µM). Moreover, the MIC in test [8] is 50 µg/mL (≈ 200 µM); in test [9], 50 µg/mL (≈ 200 µM); in test [10], 500 µg/mL (≈ 2000 µM); in test [11], 50 µg/mL (≈ 200 µM); in test [12] it was 50 µg/mL (≈ 200 µM).
